Patent US9833497B2, “Human originated EGF domain proteins and use of the same” (CHENGDU SOURCEBIO LIMITED-LIABILITY COMPANY, priority 2013, dated 2017)

Columns and labels:
Assay type in all cases: cell-based
Enterobacter cloacae = experiment: MIC against Gram-negative bacteria: Enterobacter cloacae
Method in brief: (§1)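 Antibacterial activity of purified human EGF domain proteins: two-fold concentration series, triplicate wells, LB broth, 5×10^5 CFU/mL bacteria, 37° C shaking incubation. The lowest concentration without growth defines the MIC.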

Proteus mirabilis = experiment: MIC against Gram-negative bacteria: Proteus mirabilis
Method in brief: as §1

Aeromonas hydrophila = experiment: MIC against Gram-negative bacteria: Aeromonas hydrophila
Method in brief: as §1

Serratia marcescens = experiment: MIC against Gram-negative bacteria: Serratia marcescens
Method in brief: as §1

Moraxella catarrhalis = experiment: MIC against Gram-negative bacteria: Moraxella catarrhalis
Method in brief: as §1

E. coli DH5α = experiment: Antibacterial activity: MIC and growth curve against E. coli DH5α in 96-well plate; details: minimal inhibitory concentration against E. coli DH5α; 96-well plate, 5×10^5 CFU/mL, 37° C., judged after 8 h
Method in brief: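 Log-phase DH5α (OD600 about 0.5, 37° C, 185 rpm in LB) was pelleted, resuspended in fresh LB and seeded at 5×10^5 CFU/mL with recombinant protein at 50, 25 and 12.5 μg/mL (two-fold series), in triplicate. Plates were shaken at 175 rpm, 37° C, and OD600 was read every 30 min. MIC was the lowest concentration with no growth.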

Proteus vulgaris = experiment: MIC against Gram-negative bacteria: Proteus vulgaris
Method in brief: as §1

Klebsiella pneumonia = experiment: MIC against Gram-negative bacteria: Klebsiella pneumonia
Method in brief: as §1

Citrobacter diversus = experiment: MIC against Gram-negative bacteria: Citrobacter diversus
Method in brief: as §1

Pseudomonas aeruginosa = experiment: MIC against Gram-negative bacteria: Pseudomonas aeruginosa
Method in brief: as §1

E. coli BL21 = experiment: MIC against Gram-negative bacteria: E. coli BL21
Method in brief: as §1

[1] = Enterobacter cloacae, 96-well plate, 5×10^5 CFU/mL, 37° C., 10 h
[2] = Proteus mirabilis, 96-well plate, 5×10^5 CFU/mL, 37° C., 10 h
[3] = Aeromonas hydrophila, 96-well plate, 5×10^5 CFU/mL, 37° C., 10 h
[4] = Serratia marcescens, 96-well plate, 5×10^5 CFU/mL, 37° C., 10 h
[5] = Moraxella catarrhalis, 96-well plate, 5×10^5 CFU/mL, 37° C., 10 h
[6] = Proteus vulgaris, 96-well plate, 5×10^5 CFU/mL, 37° C., 10 h
[7] = Klebsiella pneumonia, 96-well plate, 5×10^5 CFU/mL, 37° C., 10 h
[8] = Citrobacter diversus, 96-well plate, 5×10^5 CFU/mL, 37° C., 10 h
[9] = Pseudomonas aeruginosa, 96-well plate, 5×10^5 CFU/mL, 37° C., 10 h
[10] = E. coli BL21, 96-well plate, 5×10^5 CFU/mL, 37° C., 10 h
[11] = E. cloacae, 10 h cultivation at 37° C., 5×10^5 CFU/mL
[12] = P. mirabilis, 10 h cultivation at 37° C., 5×10^5 CFU/mL
[13] = A. hydrophila, 10 h cultivation at 37° C., 5×10^5 CFU/mL
[14] = S. marcescens, 10 h cultivation at 37° C., 5×10^5 CFU/mL
[15] = M. catarrhalis, 10 h cultivation at 37° C., 5×10^5 CFU/mL
[16] = P. vulgaris, 10 h cultivation at 37° C., 5×10^5 CFU/mL
[17] = K. pneumonia, 10 h cultivation at 37° C., 5×10^5 CFU/mL
[18] = C. diversus, 10 h cultivation at 37° C., 5×10^5 CFU/mL
[19] = P. aeruginosa, 10 h cultivation at 37° C., 5×10^5 CFU/mL
[20] = E. coli BL21, 10 h cultivation at 37° C., 5×10^5 CFU/mL
[21] = 96-well plate, 5×10^5 CFU/mL, 37° C., 10 h

## PRT908 (LDNACLTNPCRNGGTCDLLTLTEYKCRCPPGWSGKSCQ; listed as Homo sapiens)
Enterobacter cloacae; E. cloacae, 10 h cultivation at 37° C.
  MIC: 100 µg/mL
Proteus mirabilis; P. mirabilis, 10 h cultivation at 37° C.
  MIC: 25 µg/mL
Aeromonas hydrophila; A. hydrophila, 10 h cultivation at 37° C.
  MIC: 25 µg/mL
Serratia marcescens; S. marcescens, 10 h cultivation at 37° C.
  MIC: 25 µg/mL
Moraxella catarrhalis; M. catarrhalis, 10 h cultivation at 37° C.
  MIC: 12.5 µg/mL
E. coli DH5α
  MIC: 50 µg/mL
Proteus vulgaris; P. vulgaris, 10 h cultivation at 37° C.
  MIC: 25 µg/mL
Klebsiella pneumonia; K. pneumonia, 10 h cultivation at 37° C.
  MIC: 50 µg/mL
Citrobacter diversus; C. diversus, 10 h cultivation at 37° C.
  MIC: 50 µg/mL
Pseudomonas aeruginosa; P. aeruginosa, 10 h cultivation at 37° C.
  MIC: 25 µg/mL
E. coli BL21; E. coli BL21, 10 h cultivation at 37° C.
  MIC: 12.5 µg/mL

## PRT35 (AMDLCARRLLDPCEHQCDPETGRREHRAAGECLCYEGYMKDPVHKHLCI; listed as Homo sapiens)
Enterobacter cloacae; [1]
  MIC (μg/mL) E. cloacae: 50 µg/mL
Proteus mirabilis; [2]
  MIC (μg/mL) P. mirabilis: 12.5 µg/mL
Aeromonas hydrophila; [3]
  MIC (μg/mL) A. hydrophila: 25 µg/mL
Serratia marcescens; [4]
  MIC (μg/mL) S. marcescens: 12.5 µg/mL
Moraxella catarrhalis; [5]
  MIC (μg/mL) M. catarrhalis: 50 µg/mL
E. coli DH5α
  MIC: 12.5 µg/mL
Proteus vulgaris; [6]
  MIC (μg/mL) P. vulgaris: 25 µg/mL
Klebsiella pneumonia; [7]
  MIC (μg/mL) K. pneumonia: 12.5 µg/mL
Citrobacter diversus; [8]
  MIC (μg/mL) C. diversus: 12.5 µg/mL
Pseudomonas aeruginosa; [9]
  MIC (μg/mL) P. aeruginosa: 25 µg/mL
E. coli BL21; [10]
  MIC (μg/mL) E. coli BL21: 50 µg/mL

## PRT837 (RFSLCPGGCQSHGQCQPPGVCACEPGWGGPD; listed as Homo sapiens)
Enterobacter cloacae; [11]
  MIC (μg/mL) E. cloacae: 12.5 µg/mL
Proteus mirabilis; [12]
  MIC (μg/mL) P. mirabilis: 12.5 µg/mL
Aeromonas hydrophila; [13]
  MIC (μg/mL) A. hydrophila: 25 µg/mL
Serratia marcescens; [14]
  MIC (μg/mL) S. marcescens: 12.5 µg/mL
Moraxella catarrhalis; [15]
  MIC (μg/mL) M. catarrhalis: 25 µg/mL
E. coli DH5α
  MIC: 25 µg/mL
Proteus vulgaris; [16]
  MIC (μg/mL) P. vulgaris: 12.5 µg/mL
Klebsiella pneumonia; [17]
  MIC (μg/mL) K. pneumonia: 25 µg/mL
Citrobacter diversus; [18]
  MIC (μg/mL) C. diversus: 12.5 µg/mL
Pseudomonas aeruginosa; [19]
  MIC (μg/mL) P. aeruginosa: 25 µg/mL
E. coli BL21; [20]
  MIC (μg/mL) E. coli BL21: 12.5 µg/mL

## PRT242 (CEPGCKFGECVGPNKCRCFPGYTGKTC; listed as Homo sapiens)
Enterobacter cloacae; [11]
  MIC (μg/mL) E. cloacae: 12.5 µg/mL
Proteus mirabilis; [12]
  MIC (μg/mL) P. mirabilis: 12.5 µg/mL
Aeromonas hydrophila; [13]
  MIC (μg/mL) A. hydrophila: 12.5 µg/mL
Serratia marcescens; [14]
  MIC (μg/mL) S. marcescens: 12.5 µg/mL
Moraxella catarrhalis; [15]
  MIC (μg/mL) M. catarrhalis: 12.5 µg/mL
E. coli DH5α
  MIC: 12.5 µg/mL
Proteus vulgaris; [16]
  MIC (μg/mL) P. vulgaris: 12.5 µg/mL
Klebsiella pneumonia; [17]
  MIC (μg/mL) K. pneumonia: 50 µg/mL
Citrobacter diversus; [18]
  MIC (μg/mL) C. diversus: 12.5 µg/mL
Pseudomonas aeruginosa; [19]
  MIC (μg/mL) P. aeruginosa: 50 µg/mL
E. coli BL21; [20]
  MIC (μg/mL) E. coli BL21: 12.5 µg/mL

## PRT819 (YGHNCSQACACFNGASCDPVHGQCHCAPGWMGPSCL; listed as Homo sapiens)
Enterobacter cloacae; [11]
  MIC (μg/mL) E. cloacae: 25 µg/mL
Proteus mirabilis; [12]
  MIC (μg/mL) P. mirabilis: 12.5 µg/mL
Aeromonas hydrophila; [13]
  MIC (μg/mL) A. hydrophila: 12.5 µg/mL
Serratia marcescens; [14]
  MIC (μg/mL) S. marcescens: 25 µg/mL
Moraxella catarrhalis; [15]
  MIC (μg/mL) M. catarrhalis: 50 µg/mL
E. coli DH5α
  MIC: 12.5 µg/mL
Proteus vulgaris; [16]
  MIC (μg/mL) P. vulgaris: 50 µg/mL
Klebsiella pneumonia; [17]
  MIC (μg/mL) K. pneumonia: 12.5 µg/mL
Citrobacter diversus; [18]
  MIC (μg/mL) C. diversus: 25 µg/mL
Pseudomonas aeruginosa; [19]
  MIC (μg/mL) P. aeruginosa: 12.5 µg/mL
E. coli BL21; [20]
  MIC (μg/mL) E. coli BL21: 25 µg/mL

## PRT727 (EFDDCQIWGICDQKCESRPGRHLCHCEEGYILERGQYCK; listed as Homo sapiens)
Enterobacter cloacae; [21]
  MIC E. cloacae: 50 µg/mL
Proteus mirabilis; [21]
  MIC P. mirabilis: 50 µg/mL
Aeromonas hydrophila; [21]
  MIC A. hydrophila: 25 µg/mL
Serratia marcescens; [21]
  MIC S. marcescens: 50 µg/mL
Moraxella catarrhalis; [21]
  MIC M. catarrhalis: 25 µg/mL
E. coli DH5α
  MIC: 12.5 µg/mL
Proteus vulgaris; [21]
  MIC P. vulgaris: 12.5 µg/mL
Klebsiella pneumonia; [21]
  MIC K. pneumonia: 12.5 µg/mL
Citrobacter diversus; [21]
  MIC C. diversus: 12.5 µg/mL
Pseudomonas aeruginosa; [21]
  MIC P. aeruginosa: 50 µg/mL
E. coli BL21; [21]
  MIC E. coli BL21: 25 µg/mL

## PRT1266 (CMNKDHGCSHICKEAPRGSVACECRPGFELAKNQRDC; listed as Homo sapiens)
Enterobacter cloacae; [1]
  MIC against E. cloacae: 25 µg/mL
Proteus mirabilis; [2]
  MIC against P. mirabilis: 50 µg/mL
Aeromonas hydrophila; [3]
  MIC against A. hydrophila: 25 µg/mL
Serratia marcescens; [4]
  MIC against S. marcescens: 50 µg/mL
Moraxella catarrhalis; [5]
  MIC against M. catarrhalis: 25 µg/mL
E. coli DH5α
  MIC: 50 µg/mL
Proteus vulgaris; [6]
  MIC against P. vulgaris: 12.5 µg/mL
Klebsiella pneumonia; [7]
  MIC against K. pneumonia: 50 µg/mL
Citrobacter diversus; [8]
  MIC against C. diversus: 12.5 µg/mL
Pseudomonas aeruginosa; [9]
  MIC against P. aeruginosa: 25 µg/mL
E. coli BL21; [10]
  MIC against E. coli BL21: 12.5 µg/mL
